Data as given in patent US20140303367A1, “Methods for Synthesizing Molybdopterin Precursor Z Derivatives” (Alexion Pharma International Sàrl, priority 2011, published 2014).

Assays:
[1] = system: human apo-sulfite oxidase; test: In vitro synthesis of Moco from cPMP (conversion into MPT, molybdate insertion, reconstitution of apo-sulfite oxidase); format: biochemical; conditions: FIG. 1
Excerpt: In vitro synthesis of Moco was compared using samples of synthetic precursor Z (cPMP) and cPMP purified from E. coli. Moco synthesis also involved the use of the purified components E. coli MPT synthase, gephyrin, molybdate, ATP, and apo-sulfite oxidase. See U.S. Pat. No. 7,504,095 and “Biosynthesis and molecular biology of the molybdenum cofactor (Moco)” in Metal Ions in Biological Systems, Mendel, Ralf R. and Schwarz, Günter, Informa Plc, 2002, Vol. 39, pages 317-68. The assay is based on the conversion of cPMP into MPT, the subsequent molybdate insertion using recombinant gephyrin and ATP, and finally the reconstitution of human apo-sulfite oxidase.

[2] = target: MPT synthase from E. coli (Escherichia coli, UniProt P30748+P30749); test: In vitro synthesis of MPT from cPMP; format: biochemical; conditions: FIGS. 2 and 3; for conversion of cPMP into MPT: all samples
Excerpt: In vitro synthesis of MPT was compared using samples of synthetic precursor Z (cPMP) and cPMP purified from E. coli. MPT synthesis also involved the use of in vitro assembled MPT synthase from E. coli. See U.S. Pat. No. 7,504,095 and “Biosynthesis and molecular biology of the molybdenum cofactor (Moco)” in Metal Ions in Biological Systems, Mendel, Ralf R. and Schwarz, Günter, Informa Plc, 2002, Vol. 39, pages 317-68.

Sequence of MPT synthase from E. coli (P30749 whole entry): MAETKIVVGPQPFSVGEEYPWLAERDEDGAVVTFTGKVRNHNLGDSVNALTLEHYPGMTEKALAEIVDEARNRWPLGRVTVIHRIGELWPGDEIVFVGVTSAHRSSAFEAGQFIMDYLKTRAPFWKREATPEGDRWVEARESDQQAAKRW
Sequence of MPT synthase from E. coli (P30748 whole entry): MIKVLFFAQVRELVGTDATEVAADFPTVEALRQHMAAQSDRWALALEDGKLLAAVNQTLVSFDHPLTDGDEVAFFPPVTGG

| SMILES | Moco synthesis ([1]; E. coli MPT synthase, gephyrin, molybdate, ATP, apo-sulfite oxidase) | Moco conversion in comparison to E. coli purified cPMP [1] | MPT synthesis ([2]; in vitro assembled MPT synthase from E. coli, three repetitions) | conversion of cPMP into MPT ([2]; in vitro) | MPT conversion compared to E. coli purified cPMP ([2]; in vitro, three repetitions) |
| --- | --- | --- | --- | --- | --- |
| Nc1nc2c(c(=O)[nH]1)N[C@@H]1[C@H](N2)O[C@@H]2COP(=O)(O)O[C@@H]2C1(O)O [synthetic cPMP, (4aR,5aR,11aR,12aS)-1,3,2-Dioxaphosphorino[4′,5′:5,6]pyrano[3,2-g]pteridin-10(4H)-one,8-amino-4a,5a,6,9,11,11a,12,12a-octahydro-2,12,12-trihydroxy-2-oxide] | confirmed | no differences | confirmed | linear conversion | no apparent differences |
| Nc1nc(=O)c2c([nH]1)N[C@@H]1O[C@@H]3COP(=O)(O)O[C@@H]3C(O)(O)[C@@H]1N2 [E. coli purified cPMP, reference compound] |  |  |  | linear conversion |  |
